# Test results as given in patent publication US20230295234A1, “ANTIMICROBIAL PEPTIDOMIMETICS” (SPEXIS AG, priority 2020, published 2023).
# Bridge positions count the residues as written; N and C are the ends. Square brackets hold non-standard residues; d marks the D form. Peptide text beside a SMILES is read from it. Pro(4R-NH2) = N[C@H]1CN[C@H](C(=O)O)C1; Gly(N-2-aminoethyl) = NCCNCC(=O)O; Cha = N[C@@H](CC1CCCCC1)C(=O)O; Gly(N(CH2)3NH2) = NCCCNCC(=O)O; Pen = CC(C)(S)[C@H](N)C(=O)O; dDab = NCC[C@@H](N)C(=O)O; Nle = CCCC[C@H](N)C(=O)O; Orn = NCCC[C@H](N)C(=O)O; Dab = NCC[C@H](N)C(=O)O
# Experiments:
# [1] = tested on: Escherichia coli ATCC 25922; details: ATCC 25922
# In short: (§1)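 Broth microdilution; cation-adjusted MHII; inoculum ~5×10^5 CFU/mL from 0.5 McFarland saline suspension; peptide two-fold serial dilutions; polysorbate 80 0.002% final; peptide stock 1 mg/mL in water.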
# [2] = tested on: Escherichia coli MCR-1 Af 45; details: MCR-1 Af 45
# In short: as §1
# [3] = tested on: Klebsiella pneumoniae SSI3010; details: SSI3010
# In short: as §1
# [4] = tested on: human red blood cells (hRBC); experiment: Hemolysis of human red blood cells; type: cell-based; details: red cells of human, 1 h
# In short: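 PBS-washed human red blood cells (20% v/v) were incubated with peptide at 200 μg/mL for 1 h at 37 °C with shaking. Supernatant OD was read at 540 nm after 8-fold dilution. Hemolysis is expressed as percent of the water control.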
SMILES,Escherichia coli ATCC 25922 MIC [1] [µg/mL],Escherichia coli MCR-1 Af 45 MIC [2] [µg/mL],Klebsiella pneumoniae SSI3010 MIC [3] [µg/mL],Hemolysis at 0.2 g/L [4] [%]
"CC[C@H](C)[C@H](NC(=O)[C@@H](NC(=O)[C@@H]1C[C@@H](N)CN1C(=O)[C@@H](NC(=O)[C@@H]1CCCN1)C(C)C)[C@@H](C)CC)C(=O)N[C@@H](Cc1ccc(O)cc1)C(=O)N[C@@H]1C(=O)N[C@@H](CC(N)=O)C(=O)N[C@@H](CCCNC(=N)N)C(=O)N[C@@H](CCN)C(=O)N[C@@H]([C@@H](C)O)C(=O)N[C@H](CCN)C(=O)N[C@@H](CCCCN)C(=O)N[C@H](C(=O)N[C@@H](CCC(N)=O)C(=O)N[C@@H](CCCNC(=N)N)C(=O)N[C@@H](CC2CCCCC2)C(=O)O)CSSC1(C)C [Example 17, Pro-Val-Pro((4R)NH2)-Ile-Ile-Tyr-Pen-Asn-Arg-Dab-Thr-^DDab-Lys-Cys-Gln-Arg-Cha] (HELM PEPTIDE1{P.V.[N[C@@H]1C[C@@H](C(=O)[*:2])N([*:1])C1].I.I.Y.[Pen].N.R.[Dab].T.[NCC[C@@H](N[*:1])C(=O)[*:2]].K.C.Q.R.[Cha]}$PEPTIDE1,PEPTIDE1,7:R3-14:R3$$$V2.0)",0.125,0.125,0.25,0
"CC[C@H](C)[C@H](NC(=O)[C@@H](NC(=O)[C@@H]1C[C@@H](N)CN1C(=O)[C@@H](NC(=O)[C@@H]1C[C@@H](N)CN1)C(C)C)[C@@H](C)CC)C(=O)N[C@@H](Cc1ccc(O)cc1)C(=O)N[C@@H]1C(=O)N[C@@H](CC(N)=O)C(=O)N[C@@H](CCCNC(=N)N)C(=O)N[C@@H](CCN)C(=O)N[C@@H]([C@@H](C)O)C(=O)N[C@H](CCN)C(=O)N[C@@H](CCCCN)C(=O)N[C@H](C(=O)N[C@@H](CCC(N)=O)C(=O)N[C@@H](CCCNC(=N)N)C(=O)N[C@@H](CC2CCCCC2)C(=O)O)CSSC1(C)C [Example 18, Pro((4R)NH2)-Val-Pro((4R)NH2)-Ile-Ile-Tyr-Pen-Asn-Arg-Dab-Thr-^DDab-Lys-Cys-Gln-Arg-Cha] (H-[Pro(4R-NH2)]V[Pro(4R-NH2)]IIY[Pen]NR[Dab]T[dDab]KCQR[Cha]-OH; disulfide 7-14)",0.25,0.125,0.25,0
"CC[C@H](C)[C@H](NC(=O)[C@@H](NC(=O)[C@@H]1C[C@@H](N)CN1C(=O)[C@@H](NC(=O)[C@@H]1CCCN1)C(C)C)[C@@H](C)CC)C(=O)N[C@@H](Cc1ccc(O)cc1)C(=O)N[C@@H]1C(=O)N[C@@H](CC(N)=O)C(=O)N[C@@H](CCCNC(=N)N)C(=O)N[C@@H](CCN)C(=O)N[C@@H]([C@@H](C)O)C(=O)N[C@H](CCN)C(=O)N[C@@H](CCCCN)C(=O)N[C@H](C(=O)N[C@@H](CCN)C(=O)N[C@@H](CCCNC(=N)N)C(=O)N[C@@H](CC2CCCCC2)C(=O)O)CSSC1(C)C [Example 19, Pro-Val-Pro((4R)NH2)-Ile-Ile-Tyr-Pen-Asn-Arg-Dab-Thr-^DDab-Lys-Cys-Dab-Arg-Cha] (HELM PEPTIDE1{P.V.[N[C@@H]1C[C@@H](C(=O)[*:2])N([*:1])C1].I.I.Y.[Pen].N.R.[Dab].T.[NCC[C@@H](N[*:1])C(=O)[*:2]].K.C.[Dab].R.[Cha]}$PEPTIDE1,PEPTIDE1,7:R3-14:R3$$$V2.0)",0.0625,≤0.03125,0.0625,0
"CC[C@H](C)[C@H](NC(=O)[C@@H](NC(=O)[C@@H]1C[C@@H](N)CN1C(=O)[C@@H](NC(=O)[C@@H]1C[C@@H](N)CN1)C(C)C)[C@@H](C)CC)C(=O)N[C@@H](Cc1ccc(O)cc1)C(=O)N[C@@H]1C(=O)N[C@@H](CC(N)=O)C(=O)N[C@@H](CCCNC(=N)N)C(=O)N[C@@H](CCN)C(=O)N[C@@H]([C@@H](C)O)C(=O)N[C@H](CCN)C(=O)N[C@@H](CCCCN)C(=O)N[C@H](C(=O)N[C@@H](CCN)C(=O)N[C@@H](CCCNC(=N)N)C(=O)N[C@@H](CC2CCCCC2)C(=O)O)CSSC1(C)C [Example 20, Pro((4R)NH2)-Val-Pro((4R)NH2)-Ile-Ile-Tyr-Pen-Asn-Arg-Dab-Thr-^DDab-Lys-Cys-Dab-Arg-Cha] (H-[Pro(4R-NH2)]V[Pro(4R-NH2)]IIY[Pen]NR[Dab]T[dDab]KC[Dab]R[Cha]-OH; disulfide 7-14)",≤0.03125,≤0.03125,0.125,1

# Continued, in another order:
Escherichia coli ATCC 25922 MIC [1] [µg/mL],Escherichia coli MCR-1 Af 45 MIC [2] [µg/mL],Klebsiella pneumoniae SSI3010 MIC [3] [µg/mL],SMILES,Hemolysis at 0.2 g/L [4] [%]
0.125,0.125,0.25,"CCCC[C@H](NC(=O)[C@H](CCCNC(=N)N)NC(=O)[C@H](CCCN)NC(=O)[C@@H]1CSSC(C)(C)[C@H](NC(=O)[C@H](Cc2ccc(O)cc2)NC(=O)[C@@H](NC(=O)[C@@H](NC(=O)CN(CCN)C(=O)[C@@H](NC(=O)CNCCN)C(C)C)[C@@H](C)CC)[C@@H](C)CC)C(=O)N[C@@H](CC(N)=O)C(=O)N[C@@H](CCCNC(=N)N)C(=O)N[C@@H](CCN)C(=O)N[C@@H]([C@@H](C)O)C(=O)N[C@H](CCN)C(=O)N[C@@H](CCCN)C(=O)N1)C(=O)O [Example 16, Ndab-Val-Ndab-Ile-Ile-Tyr-Pen-Asn-Arg-Dab-Thr-^DDab-Orn-Cys-Orn-Arg-Nle] (H-[Gly(N-2-aminoethyl)]V[Gly(N-2-aminoethyl)]IIY[Pen]NR[Dab]T[dDab][Orn]C[Orn]R[Nle]-OH; disulfide 7-14)",0
0.0625,≤0.03125,0.25,"CC[C@H](C)[C@H](NC(=O)CN(CCN)C(=O)[C@@H](NC(=O)CNCCN)C(C)C)C(=O)N[C@H](C(=O)N[C@@H](Cc1ccc(O)cc1)C(=O)N[C@@H]1C(=O)N[C@@H](CC(N)=O)C(=O)N[C@@H](CCCNC(=N)N)C(=O)N[C@@H](CCN)C(=O)N[C@@H]([C@@H](C)O)C(=O)N[C@H](CCN)C(=O)N[C@@H](CCCCN)C(=O)N[C@H](C(=O)N[C@@H](CCN)C(=O)N[C@@H](CCCNC(=N)N)C(=O)N[C@@H](CC2CCCCC2)C(=O)O)CSSC1(C)C)[C@@H](C)CC [Example 21, Ndab-Val-Ndab-Ile-Ile-Tyr-Pen-Asn-Arg-Dab-Thr-^DDab-Lys-Cys-Dab-Arg-Cha] (H-[Gly(N-2-aminoethyl)]V[Gly(N-2-aminoethyl)]IIY[Pen]NR[Dab]T[dDab]KC[Dab]R[Cha]-OH; disulfide 7-14)",0
0.0625,≤0.03125,0.0625,"CC[C@H](C)[C@H](NC(=O)CN(CCCN)C(=O)[C@@H](NC(=O)CNCCCN)C(C)C)C(=O)N[C@H](C(=O)N[C@@H](Cc1ccc(O)cc1)C(=O)N[C@@H]1C(=O)N[C@@H](CC(N)=O)C(=O)N[C@@H](CCCNC(=N)N)C(=O)N[C@@H](CCN)C(=O)N[C@@H]([C@@H](C)O)C(=O)N[C@H](CCN)C(=O)N[C@@H](CCCCN)C(=O)N[C@H](C(=O)N[C@@H](CCN)C(=O)N[C@@H](CCCNC(=N)N)C(=O)N[C@@H](CC2CCCCC2)C(=O)O)CSSC1(C)C)[C@@H](C)CC [Example 22, Norn-Val-Norn-Ile-Ile-Tyr-Pen-Asn-Arg-Dab-Thr-^DDab-Lys-Cys-Dab-Arg-Cha] (H-[Gly(N(CH2)3NH2)]V[Gly(N(CH2)3NH2)]IIY[Pen]NR[Dab]T[dDab]KC[Dab]R[Cha]-OH; disulfide 7-14)",0
